Laboratory results reported in patent US20130280169A1, “CENTRAL NERVOUS SYSTEM TISSUE-LABELING COMPOSITION, METHOD FOR LABELING CENTRAL NERVOUS SYSTEM TISSUE, AND SCREENING METHOD USING CENTRAL NERVOUS SYSTEM TISSUE-LABELING COMPOSITION” (CANON KABUSHIKI KAISHA, priority 2009, published 2013).

How the values were obtained:
[1] = Excitation and fluorescence wavelength by FL4500 fluorescence spectrophotometer; conditions: for λem / λex: 10 mg/mL DMSO solution diluted 500-fold with distilled water
[2] = system: central nervous system tissues of juvenile zebrafish (7 dpf); test: Labeling the central nervous system tissue of live 7 dpf juvenile zebrafish by immersion in labeling solution
Protocol: Subsequently, the labeling solution 1 in the well was removed and replaced by 1 mL of distilled water. This operation was repeated three times. Then, juvenile zebrafish was removed from the well and embedded in 5% low melting point agarose gel on a slide glass so as to restrict movement, and the state of labeling in the central nervous system tissues were observed from the lateral side of zebrafish by a fluorescence stereomicroscope (manufactured by Leica Microsystems, MZ16FA). Also, the brain nerve tissues were observed from the parietal region by a confocal microscope (manufactured by Carl Zeiss, Inc., Pascal Exciter).

[3] = system: brain of juvenile zebrafish; conditions: according to Patent Literature 3; cited from earlier work
[4] = 7 dpf juvenile zebrafish, labeling solution 1 μg/mL, one hour
[5] = aqueous solution, 10 mg/mL DMSO solution diluted 500-fold with distilled water (Table 2)
[6] = juvenile zebrafish, labeling solution 1 μg/mL, one hour (Table 2)
[7] = 5 μM chloroform solution (Examples 30 to 34)
[8] = 7 dpf juvenile zebrafish, labeling solution 1 μg/mL, one hour (Table 3)
[9] = 5 ηM DMSO solution (Examples 35 to 46)

Cn1c(=O)cc2c3c(c(NC4CCCCC4)ccc31)C(=O)c1ccccc1-2 [(8)]
λem ([1]; aqueous solution): 619 | λex ([1]; aqueous solution): 599 | Labeling property [2, 4]: ++ | State of labeling of optic nerve, optic tract, superior colliculus (optic tectum), pituitary gland, tectospinal (tectobulbar) tract and reticular formation ([2]; 7 dpf juvenile zebrafish, one hour, fluorescence stereomicroscope and confocal microscope): intensely labeled

Cn1c(=O)cc2c3c(c(NCc4ccccc4)ccc31)C(=O)c1ccccc1-2 [(9)]
λem ([1]; aqueous solution): 556 | λex ([1]; aqueous solution): 480 | Labeling property [2, 4]: ++

CCN(CC)c1ccc2cc3c(oc2c1)c(C#N)c(=N)n1c2ccccc2nc31 [(10)]
λem ([1]; aqueous solution): 577 | λex ([1]; aqueous solution): 556 | Labeling property [2, 4]: ++

CCN(CC)c1ccc2cc3c(oc2c1)c(C#N)c(=O)n1c2ccccc2nc31 [(11)]
λem ([1]; aqueous solution): 576 | λex ([1]; aqueous solution): 555 | Labeling property [2, 4]: +

CCCCNc1ccc2c3c(cccc13)C(=O)N(CCCC)C2=O [(12)]
λem ([1]; aqueous solution): 551 | λex ([1]; aqueous solution): 466 | Labeling property [2, 4]: ++

CCN1C(=S)N(c2ccccc2)C(=O)/C1=C/C=C1/Sc2ccccc2N1CC [(14)]
λem ([1]; aqueous solution): 560 | λex ([1]; aqueous solution): 530 | Labeling property [2, 4]: ++

CCN(CC)c1ccc2cc(-c3nc4ccccc4s3)c(=O)oc2c1 [Compound 15]
Excitation wavelength λex [1, 5]: 469 | Fluorescence wavelength λem [1, 5]: 555 | Stokes shift λem − λex [1, 5]: 86 | Fluorescence sensitivity [2, 6]: ++ | Labeling property [2, 6]: ++

COc1ccc2cc(-c3nc4ccccc4[nH]3)c(=N)oc2c1 [Compound 16]
Excitation wavelength λex [1, 5]: 380 | Fluorescence wavelength λem [1, 5]: 470 | Stokes shift λem − λex [1, 5]: 90 | Fluorescence sensitivity [2, 6]: + | Labeling property [2, 6]: +

N=c1oc2ccc3ccccc3c2cc1-c1nc2ccccc2[nH]1 [Compound 17]
Excitation wavelength λex [1, 5]: 410 | Fluorescence wavelength λem [1, 5]: 490 | Stokes shift λem − λex [1, 5]: 80 | Fluorescence sensitivity [2, 6]: + | Labeling property [2, 6]: +

CCN(CC)c1ccc2cc(-c3nc4ccccc4[nH]3)c(=N)oc2c1 [Compound 18]
Excitation wavelength λex [1, 5]: 464 | Fluorescence wavelength λem [1, 5]: 514 | Stokes shift λem − λex [1, 5]: 50 | Fluorescence sensitivity [2, 6]: ++ | Labeling property [2, 6]: ++

COc1ccc2cc(-c3nc4ccccc4[nH]3)c(=O)oc2c1 [Compound 20]
Excitation wavelength λex [1, 5]: 380 | Fluorescence wavelength λem [1, 5]: 470 | Stokes shift λem − λex [1, 5]: 90 | Fluorescence sensitivity [2, 6]: + | Labeling property [2, 6]: +

COc1cccc2cc(-c3nc4ccccc4[nH]3)c(=O)oc12 [Compound 22]
Excitation wavelength λex [1, 5]: 360 | Fluorescence wavelength λem [1, 5]: 510 | Stokes shift λem − λex [1, 5]: 150 | Fluorescence sensitivity [2, 6]: + | Labeling property [2, 6]: +

CCN(CC)c1ccc2cc(-c3nc4cc(Cl)ccc4o3)c(=O)oc2c1 [Compound 23]
Excitation wavelength λex [1, 5]: 422 | Fluorescence wavelength λem [1, 5]: 476 | Stokes shift λem − λex [1, 5]: 54 | Fluorescence sensitivity [2, 6]: + | Labeling property [2, 6]: ++

Cc1ccc2oc(=O)c(-c3nc4ccccc4[nH]3)cc2c1 [Compound 24]
Excitation wavelength λex [1, 5]: 380 | Fluorescence wavelength λem [1, 5]: 490 | Stokes shift λem − λex [1, 5]: 110 | Fluorescence sensitivity [2, 6]: + | Labeling property [2, 6]: +

CCCN(CCC)c1ccc2cc(-c3nc4ccccc4[nH]3)c(=O)oc2c1 [Compound 25]
Excitation wavelength λex [1, 5]: 463 | Fluorescence wavelength λem [1, 5]: 509 | Stokes shift λem − λex [1, 5]: 46 | Fluorescence sensitivity [2, 6]: ++ | Labeling property [2, 6]: ++

O=c1oc2ccc3ccccc3c2cc1-c1nc2ccccc2[nH]1 [Compound 28]
Excitation wavelength λex [1, 5]: 410 | Fluorescence wavelength λem [1, 5]: 540 | Stokes shift λem − λex [1, 5]: 130 | Fluorescence sensitivity [2, 6]: + | Labeling property [2, 6]: +

O=C1c2ccccc2-c2cc(=O)n(C3CCCCC3)c3ccc(NC4CCCCC4)c1c23 [Compound 29]
Excitation wavelength λex [1, 7]: 547 | Fluorescence wavelength λem [1, 7]: 592 | Fluorescence sensitivity [2, 8]: +

CCCCn1c(=O)cc2c3c(c(NC4CCCCC4)ccc31)C(=O)c1ccccc1-2 [Compound 30]
Excitation wavelength λex [1, 7]: 548 | Fluorescence wavelength λem [1, 7]: 575 | Fluorescence sensitivity [2, 8]: +

CCCCC(CC)CNc1ccc2c3c(cc(=O)n2CCCC)-c2ccccc2C(=O)c13 (stereo not shown) [Compound 31]
Excitation wavelength λex [1, 7]: 547 | Fluorescence wavelength λem [1, 7]: 574 | Fluorescence sensitivity [2, 8]: +

CCCCn1c(=O)cc2c3c(c(NCCC4=CCCCC4)ccc31)C(=O)c1ccccc1-2 [Compound 32]
Excitation wavelength λex [1, 7]: 544 | Fluorescence wavelength λem [1, 7]: 573 | Fluorescence sensitivity [2, 8]: +

CCCCOCCCNc1ccc2c3c(cc(=O)n2CCCC)-c2ccccc2C(=O)c13 [Compound 33]
Excitation wavelength λex [1, 7]: 544 | Fluorescence wavelength λem [1, 7]: 573 | Fluorescence sensitivity [2, 8]: +

O=C(O)CCN1C(=O)/C(=C\c2cc(Br)c3c(c2)C2CCCC2N3c2ccc(Br)cc2)SC1=S (stereo not shown) [Compound 34]
Excitation wavelength λex [1, 9]: 474 | Fluorescence wavelength λem [1, 9]: 590 | Fluorescence sensitivity [2, 8]: +

COc1ccc(N2c3ccc(/C=C4/SC(=S)N(CCC(=O)O)C4=O)cc3C3CCCC32)cc1 (stereo not shown) [Compound 35]
Excitation wavelength λex [1, 9]: 521 | Fluorescence wavelength λem [1, 9]: 634 | Fluorescence sensitivity [2, 8]: ++

O=C(O)CCN1C(=O)/C(=C\c2ccc3c(c2)C2CCCC2N3Cc2ccccc2)SC1=S (stereo not shown) [Compound 36]
Excitation wavelength λex [1, 9]: 510 | Fluorescence wavelength λem [1, 9]: 584 | Fluorescence sensitivity [2, 8]: +

O=C(O)CCN1C(=O)/C(=C\c2ccc3c(c2)C2CCCC2N3c2ccccc2)SC1=S (stereo not shown) [Compound 37]
Excitation wavelength λex [1, 9]: 502 | Fluorescence wavelength λem [1, 9]: 604 | Fluorescence sensitivity [2, 8]: ++

COc1ccc2cc(N3c4ccc(/C=C5/SC(=S)N(CCC(=O)O)C5=O)cc4C4CCCC43)ccc2c1 (stereo not shown) [Compound 38]
Excitation wavelength λex [1, 9]: 521 | Fluorescence wavelength λem [1, 9]: 646 | Fluorescence sensitivity [2, 8]: +

CN1c2ccc(/C=C3/SC(=S)N(CCC(=O)O)C3=O)cc2C2CCCC21 (stereo not shown) [Compound 39]
Excitation wavelength λex [1, 9]: 517 | Fluorescence wavelength λem [1, 9]: 590 | Fluorescence sensitivity [2, 8]: ++

CCN1c2ccc(/C=C3/SC(=S)N(CCC(=O)O)C3=O)cc2CC1C (stereo not shown) [Compound 40]
Excitation wavelength λex [1, 9]: 509 | Fluorescence wavelength λem [1, 9]: 593 | Fluorescence sensitivity [2, 8]: ++

CCn1c2ccccc2c2cc(/C=C3/SC(=S)N(CCC(=O)O)C3=O)ccc21 [Compound 41]
Excitation wavelength λex [1, 9]: 452 | Fluorescence wavelength λem [1, 9]: 540 | Fluorescence sensitivity [2, 8]: +

CCCN1c2ccc(/C=C3/SC(=S)N(CCC(=O)O)C3=O)cc2C2CCCC21 (stereo not shown) [Compound 42]
Excitation wavelength λex [1, 9]: 519 | Fluorescence wavelength λem [1, 9]: 592 | Fluorescence sensitivity [2, 8]: ++

CCN1c2ccc(/C=C/C=C3/SC(=S)N(CCC(=O)O)C3=O)cc2C2CCCC21 (stereo not shown) [Compound 43]
Excitation wavelength λex [1, 9]: 564 | Fluorescence wavelength λem [1, 9]: 671 | Fluorescence sensitivity [2, 8]: ++

CSc1ccc(N2c3ccc(/C=C4/SC(=S)N(CCC(=O)O)C4=O)cc3C3CCCC32)cc1 (stereo not shown) [Compound 44]
Excitation wavelength λex [1, 9]: 518 | Fluorescence wavelength λem [1, 9]: 647 | Fluorescence sensitivity [2, 8]: ++

CCN1CCc2cc(/C=C3/SC(=S)N(CCC(=O)O)C3=O)ccc21 [Compound 45]
Excitation wavelength λex [1, 9]: 510 | Fluorescence wavelength λem [1, 9]: 597 | Fluorescence sensitivity ([2]; 7 dpf juvenile zebrafish, labeling solution 45 with 3 μg/mL dye compound, one hour (Table 3)): +

Cc1cc(-c2ccc(/N=N/c3ccc4c(S(=O)(=O)O)cc(S(=O)(=O)O)c(N)c4c3O)c(C)c2)ccc1/N=N/c1ccc2c(S(=O)(=O)O)cc(S(=O)(=O)O)c(N)c2c1O [Evans blue]
Migration of administered dye into the brain confirmed up to [3]: up to 4 dpf

O=C1OC2(c3ccc(O)cc3Oc3cc(O)ccc32)c2ccccc21 [Fluorescein, reference compound]
Migration of administered dye into the brain confirmed up to [3]: ≤ 8 dpf | Labeling property [2, 4]: −

rhodamine 123
Migration of administered dye into the brain confirmed up to [3]: ≤ 5 dpf
